Measured values published in ChEMBL document CHEMBL3886390, “Triazolyl PDE10 inhibitors” (2015).

Target: cAMP and cAMP-inhibited cGMP 3',5'-cyclic phosphodiesterase 10A (Homo sapiens, UniProt Q9Y233)
Experiment: Fluorescence Polarization Assay: In a typical experiment the PDE10 inhibitory activity of the compounds of the present invention was determined in accordance with the following experimental method. PDE10A2 was amplified from human fetal brain cDNA (Clontech, Mountain View, Calif.) using a forward primer corresponding to nucleotides 56-77 of human PDE10A2 (Accession No. AF127480, Genbank Identifier 4894716), containing a Kozak consensus sequence, and a reverse primer corresponding to nucleotides 2406-2413 of human PDE10A2 (Accession No. AF127480, Genbank Identifier 4894716). Amplification with Easy-A polymerase (Stratagene, La Jolla, Calif.) was 95° C. for 2 minutes followed by thirty three cycles of 95° C. for 40 seconds, 55° C. for 30 seconds, and 72° C. for 2 minutes 48 seconds. Final extension was 72° C. for 7 minutes. The PCR product was TA cloned into pcDNA3.2-TOPO (Invitrogen, Carlsbad, Calif.) according to standard protocol. AD293 cells with 70-80% confluency were transiently transfected with human PDE10A2.

Sequence of cAMP and cAMP-inhibited cGMP 3',5'-cyclic phosphodiesterase 10A (Q9Y233 whole entry): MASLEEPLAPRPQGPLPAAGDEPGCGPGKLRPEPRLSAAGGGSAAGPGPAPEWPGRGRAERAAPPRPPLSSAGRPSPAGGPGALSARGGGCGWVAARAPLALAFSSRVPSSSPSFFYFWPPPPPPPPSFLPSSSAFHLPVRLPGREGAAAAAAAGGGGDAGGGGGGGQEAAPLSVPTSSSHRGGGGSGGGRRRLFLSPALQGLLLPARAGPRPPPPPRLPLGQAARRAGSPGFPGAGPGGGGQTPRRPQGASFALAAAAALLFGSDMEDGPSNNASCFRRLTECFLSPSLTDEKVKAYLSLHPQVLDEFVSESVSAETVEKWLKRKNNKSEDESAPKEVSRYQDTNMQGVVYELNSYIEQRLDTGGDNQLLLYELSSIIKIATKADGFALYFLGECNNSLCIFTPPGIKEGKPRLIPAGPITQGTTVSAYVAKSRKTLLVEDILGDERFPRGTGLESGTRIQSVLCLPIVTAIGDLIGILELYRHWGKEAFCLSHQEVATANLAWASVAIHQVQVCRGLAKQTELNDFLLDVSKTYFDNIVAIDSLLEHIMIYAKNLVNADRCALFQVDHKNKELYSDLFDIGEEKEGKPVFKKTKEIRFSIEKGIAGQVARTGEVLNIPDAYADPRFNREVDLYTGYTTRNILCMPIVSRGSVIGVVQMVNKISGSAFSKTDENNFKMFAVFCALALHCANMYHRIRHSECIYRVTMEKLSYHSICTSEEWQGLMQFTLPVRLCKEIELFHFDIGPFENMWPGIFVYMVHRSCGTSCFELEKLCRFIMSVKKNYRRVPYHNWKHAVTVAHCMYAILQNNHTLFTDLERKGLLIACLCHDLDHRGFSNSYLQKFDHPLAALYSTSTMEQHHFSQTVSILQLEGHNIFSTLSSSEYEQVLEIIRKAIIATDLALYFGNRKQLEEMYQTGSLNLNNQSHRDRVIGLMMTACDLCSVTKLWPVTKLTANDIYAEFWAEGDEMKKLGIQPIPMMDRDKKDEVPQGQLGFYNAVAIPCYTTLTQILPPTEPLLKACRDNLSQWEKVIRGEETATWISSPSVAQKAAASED

Row | SMILES | Ki
1 | Cc1nc(C2CC2c2nc3ccc(F)cc3[nH]2)cc(-n2nc(C)nc2C)n1 (configuration not stated) | 14.2 nM
2 | COc1ccc(COc2cc(-n3nc(C)nc3Cc3ccc(OC)c(OC)c3)nc(C)n2)nc1 | 3.3 nM
